In patent publication US12036271B2, “Peptides and combination of peptides as targets or active ingredients for use in immunotherapy against AML and other cancers” (Immatics Biotechnologies GmbH, priority 2016, dated 2024):

Each substance was assayed on CD8+ T cells (assay: In vitro immunogenicity: T-cell priming with aAPCs loaded with peptide/MHC complexes and anti-CD28, pMHC multimer readout). Conditions: HLA-A*02 healthy donor CD8+ T cells, multimer staining.
Format: cell-based, human
Excerpt: In order to obtain information regarding the immunogenicity of the TUMAPs of the present invention, the inventors performed investigations using an in vitro T-cell priming assay based on repeated stimulations of CD8+ T cells with artificial antigen presenting cells (aAPCs) loaded with peptide/MHC complexes and anti-CD28 antibody.
In order to perform in vitro stimulations by artificial antigen presenting cells loaded with peptide-MHC complex (pMHC) and anti-CD28 antibody, the inventors first isolated CD8+ T cells from fresh HLA-A*02 leukapheresis products via positive selection using CD8 microbeads (Miltenyi Biotec, Bergisch-Gladbach, Germany) of healthy donors obtained from the University clinics Mannheim, Germany, after informed consent.
PBMCs and isolated CD8+ lymphocytes were incubated in T-cell medium (TCM) until use consisting of RPMI-Glutamax (Invitrogen, Karlsruhe, Germany) supplemented with 10% heat inactivated human AB serum (PAN-Biotech, Aidenbach, Germany), 100 U/ml Penicillin/100 μg/ml Streptomycin (Cambrex, Cologne, Germany), 1 mM sodium pyruvate (CC Pro, Oberdorla, Germany), 20 μg/ml Gentamycin (Cambrex). 2.5 ng/ml IL-7 (PromoCell, Heidelberg, Germany) and 10 U/ml IL-2 (Novartis Pharma, Nürnberg, Germany) were also added to the TCM at this step.
Generation of pMHC/anti-CD28 coated beads, T-cell stimulations and readout was performed in a highly defined in vitro system using four different pMHC molecules per stimulation condition and 8 different pMHC molecules per readout condition.
The purified co-stimulatory mouse IgG2a anti human CD28 Ab 9.3 (Jung et al., 1987) was chemically biotinylated using Sulfo-N-hydroxysuccinimidobiotin as recommended by the manufacturer (Perbio, Bonn, Germany). Beads used were 5.6 μm diameter streptavidin coated polystyrene particles (Bangs Laboratories, Illinois, USA).
800.000 beads/200 μl were coated in 96-well plates in the presence of 4×12.5 ng different biotin-pMHC, washed and 600 ng biotin anti-CD28 were added subsequently in a volume of 200 μl. Stimulations were initiated in 96-well plates by co-incubating 1×10^6 CD8+ T cells with 2×10^5 washed coated beads in 200 μl TCM supplemented with 5 ng/ml IL-12 (PromoCell) for 3 days at 37° C. Half of the medium was then exchanged by fresh TCM supplemented with 80 U/ml IL-2 and incubating was continued for 4 days at 37° C. This stimulation cycle was performed for a total of three times. For the pMHC multimer readout using eight different pMHC molecules per condition, a two-dimensional combinatorial coding approach was used as previously described (Andersen et al., 2012) with minor modifications encompassing coupling to 5 different fluorochromes. Finally, multimeric analyses were performed by staining the cells with Live/dead near IR dye (Invitrogen, Karlsruhe, Germany), CD8-FITC antibody clone SK1 (BD, Heidelberg, Germany) and fluorescent pMHC multimers. For analysis, a BD LSRII SORP cytometer equipped with appropriate lasers and filters was used. Peptide specific cells were calculated as percentage of total CD8+ cells. Evaluation of multimeric analysis was done using the FlowJo software (Tree Star, Oregon, USA). In vitro priming of specific multimer+CD8+ lymphocytes was detected by comparing to negative control stimulations.

Row | Substance | wells
1 | 189 (RLFEEVLGV; listed as Homo sapiens) [compound 189] | ++ (20%-49% = ++)
2 | 190 (SLYKGLLSV; listed as Homo sapiens) [compound 190] | ++ (20%-49% = ++)
3 | 191 (ALSVLRLAL; listed as Homo sapiens) [compound 191] | ++ (20%-49% = ++)
4 | 192 (GLAALAVHL; listed as Homo sapiens) [compound 192] | ++ (20%-49% = ++)
5 | 193 (FLLAEDTKV; listed as Homo sapiens) [compound 193] | ++ (20%-49% = ++)
6 | 194 (LLWGNLPEI; listed as Homo sapiens) [compound 194] | ++ (20%-49% = ++)
7 | 195 (FLFVDPELV; listed as Homo sapiens) [compound 195] | +++ (50%-69% = +++)
8 | 196 (ILVDWLVQV; listed as Homo sapiens) [compound 196] | ++ (20%-49% = ++)
9 | 197 (VLLNEILEQV; listed as Homo sapiens) [compound 197] | ++ (20%-49% = ++)
10 | 198 (KIQEILTQV; listed as Homo sapiens) [compound 198] | ++ (20%-49% = ++)
